Measured values: US7393937B2, “N-acetylglucosamine derivatives and use thereof” (Kao Corporation, priority 2002, dated 2008)

Key:
cultured epidermal cells = settings: 5 mmol/L; independently from cell proliferation; cited from earlier work
[1] = system: Normal human epidermal cells; assay: Test Example 2: hyaluronic acid production promotion in normal human epidermal cells; assay type: cell-based; settings: 48-hour culture, FIG. 3
From the text: Normal human epidermal cells (manufactured by Kurabo Industries Ltd.) were inoculated into 24-well plates and cultured in a culture medium for proliferation to the confluent density, and then 2-acetamido-1,3,4,6-tetra-O-acetyl-2-deoxy-β-D-glucopyranoside represented by formula (17) to a final concentration of 100 μmol/L, N-acetylglucosamine derivative obtained in Production Example 9 at a final concentration of 1 mmol/L, and N-acetylglucosamine derivatives obtained in Production Examples 10 to 12 at a final concentration of 100 mmol/L were added. After 48-hour culture from the addition, the amount of hyaluronic acid released into the culture medium was measured. The measurement of the hyaluronic acid was carried out by using a commercially available hyaluronic acid measurement kit (manufactured by Chugai Pharmaceutical Co., Ltd.).

[2] = 100 mmol/L (so in the source), 1/10 concentration of N-acetylglucosamine

Row | Structure (SMILES) | hyaluronic acid production-promoting effect compared with N-acetylglucosamine [1, 2] | also measured
1 | CC(=O)N[C@H]1C(O)O[C@H](CO)[C@@H](O)[C@@H]1O (stereo partly drawn) [N-acetylglucosamine] |  | promotion of hyaluronic acid production (cultured epidermal cells): about 1.5 times
2 | CCOC1OC(COC(C)=O)C(OC(C)=O)C(OC(C)=O)C1NC(C)=O [Production Example 9, ethyl(2-acetamido-3,4,6-tri-O-acetyl-2-deoxy)β-D-glucopyranoside] |  | hyaluronic acid production-promoting effect compared with N-acetylglucosamine ([1]; 1 mmol/L (same concentration as N-acetylglucosamine)): 6.5 times
3 | CCCCCOC1OC(COC(C)=O)C(OC(C)=O)C(OC(C)=O)C1NC(C)=O [Production Example 10, pentyl(2-acetamido-3,4,6-tri-O-acetyl-2-deoxy)β-D-glucopyranoside] | 3.8 times | 
4 | CCCCCCCCOC1OC(COC(C)=O)C(OC(C)=O)C(OC(C)=O)C1NC(C)=O [Production Example 11, octyl(2-acetamido-3,4,6-tri-O-acetyl-2-deoxy)β-D-glucopyranoside] | 2.8 times | 
5 | CC(=O)NC1C(OC/C=C(\C)CCC=C(C)C)OC(COC(C)=O)C(OC(C)=O)C1OC(C)=O [Production Example 12, geranyl(2-acetamido-3,4,6-tri-O-acetyl-2-deoxy)β-D-glucopyranoside] | 3.7 times | 
6 | CC(=O)NC1C(OC(C)=O)OC(COC(C)=O)C(OC(C)=O)C1OC(C)=O [formula (17), 2-acetamido-1,3,4,6-tetra-O-acetyl-2-deoxy-β-D-glucopyranoside] |  | hyaluronic acid production-promoting effect compared with N-acetylglucosamine ([1]; 100 μmol/L (1/10 concentration of N-acetylglucosamine)): 3.0 times
